Results as given in US10258039B2, “Substituted pyrazolylpyrazole derivative and use of same as herbicide” (KYOYU AGRI CO., LTD., priority 2015, dated 2019).

Tests used:
Type in all cases: in vivo
Echinochloa crus-galli = test: Paddy herbicidal activity test; details: irrigated paddy pot, treated at 3.5 leaf stage of Echinochloa crus-galli, 30 days, 30° C.
Method: (§1) 1. Paddy Herbicidal Activity Test
(§2) Rice paddy soil was filled into a 1/10000 are pot followed by the addition of suitable amounts of water and chemical fertilizer, kneading, seeding with Echinochloa crus-galli, Monochoria vaginalis and Scirpus juncoides and maintaining in an irrigated state at a water depth of 3 cm.
(§3) Wettable powders of Target Compound (I) shown in. Table 1 prepared in compliance with the preparation examples were diluted with a suitable amount of water, rice plants in the 2.0 leaf stage were transplanted during 3.5 leaf stage of Echinochloa crus-galli, and treated by dropping in chemical in the prescribed amount per 10 are using a pipette.
(§4) After treating for 30 days in a glass greenhouse at an average atmospheric temperature of 30° C., the herbicidal efficacy thereof was investigated.
(§5) Evaluation of herbicidal efficacy was carried out by comparing growth inhibition rate (%) with an untreated group, while evaluation of phytotoxicity was carried out by comparing growth inhibition rate (%) with the state of a complete eradication group, and were evaluated at 11 levels indicated below.

Monochoria vaginalis = test: Paddy herbicidal activity test; details: irrigated paddy pot, 30 days, 30° C.
Method: as §1, §2, §3, §4, §5

Scirpus juncoides = test: Paddy herbicidal activity test; details: irrigated paddy pot, 30 days, 30° C.
Method: as §1, §2, §3, §4, §5

Oryza sativa = test: Paddy herbicidal activity test, phytotoxicity to transplanted rice; details: rice transplanted at 2.0 leaf stage, 30 days, 30° C.
Method: as §1, §2, §3, §4, §5

Amaranthus retroflexus [1] = test: Farming soil treatment test; details: soil surface spray prior to weed growth, 30 days, 30° C.
Method: (§6) 2. Farming Soil Treatment Test
(§7) Field soil was filled into a 1/6000 are pot followed by seeding with Digitaria ciliaris, Chenopodium album and Amaranthus retroflexus and covering with soil.
(§8) Wettable powders of compounds of formula (I) shown in Table 1 prepared in compliance with the preparation examples were diluted with water to the prescribed amount of chemical and uniformly sprayed onto each soil surface layer using 100 liters of sprayed water per 10 are prior to weed growth following seeding.
as §4
(§9) Evaluation of herbicidal efficacy was carried out in the same manner as the above-mentioned Test Example 1.

Chenopodium album [2] = test: Farming soil treatment test; details: soil surface spray prior to weed growth, 30 days, 30° C.
Method: as §6, §7, §8, §4, §9

Digitaria ciliaris [3] = test: Farming soil treatment test; details: soil surface spray prior to weed growth, 30 days, 30° C.
Method: as §6, §7, §8, §4, §9

Amaranthus retroflexus [4] = test: Weed foliar treatment test (Test 3, 1.0 to 2.0 leaf stage); details: foliar spray at 1.0 to 2.0 leaf stage of Digitaria ciliaris, 3 weeks, 25° C.
Method: (§10) 3. Weed Foliar Treatment Test
(§11) Soil was filled into a 1/6000 are pot followed by seeding with Digitaria ciliaris, Chenopodium album and Amaranthus retroflexus, covering with soil, and cultivating in a glass greenhouse at an average atmospheric temperature of 25° C.
(§12) Wettable powders of Target Compound (I) shown in Table 1 prepared in compliance with the preparation examples were diluted with water to the prescribed amount of chemical and uniformly sprayed onto the weeds using 150 liters of sprayed water per 10 are when Digitaria ciliaris had grown to the 1.0 to 2.0 leaf stage.
(§13) After treating for 3 weeks in a glass greenhouse at an average atmospheric temperature of 25° C., the herbicidal efficacy thereof was investigated.
as §9

Chenopodium album [5] = test: as above; details: foliar spray at 1.0 to 2.0 leaf stage of Digitaria ciliaris, 3 weeks, 25° C.
Method: as §10, §11, §12, §13, §9

Digitaria ciliaris [6] = test: as above; details: foliar spray at 1.0 to 2.0 leaf stage of Digitaria ciliaris, 3 weeks, 25° C.
Method: as §10, §11, §12, §13, §9

Digitaria ciliaris [7] = test: Weed foliar treatment test (Test 4, 4.0 to 5.0 leaf stage); details: 10g a.i./10a; foliar spray at 4.0 to 5.0 leaf stage of Digitaria ciliaris (plant height 10 cm to 15 cm); 20 days, 25° C.
Method: (§14) 4. Weed Foliar Treatment Test
(§15) Field soil was filled into a 1/4500 are pot followed by seeding with Digitaria ciliaris and Galinsoga parviflora, covering with soil and cultivating in a glass greenhouse at an average atmospheric temperature of 25° C.
as §12, with “100” for “150”, “4.0” for “1.0”, “5.0” for “2.0”, “stage (plant height: 10 cm to 15 cm).” for “stage.”
(§16) After treating for 20 days in a glass greenhouse at an average atmospheric temperature of 25° C., the herbicidal efficacy thereof was investigated.
as §9

Galinsoga parviflora = test: as above; details: 10g a.i./10a; foliar spray at 4.0 to 5.0 leaf stage of Digitaria ciliaris; 20 days, 25° C.
Method: as §14, §15
as §12, with “100” for “150”, “4.0” for “1.0”, “5.0” for “2.0”, “stage (plant height: 10 cm to 15 cm).” for “stage.”
as §16, §9

Structure (SMILES)	herbicidal efficacy, Echinochloa crus-galli (Echinochloa crus-galli; 1g a.i./10a)	herbicidal efficacy, Echinochloa crus-galli (Echinochloa crus-galli; 5g a.i./10a)	herbicidal efficacy, Monochoria vaginalis (Monochoria vaginalis; 1g a.i./10a)	herbicidal efficacy, Monochoria vaginalis (Monochoria vaginalis; 5g a.i./10a)	herbicidal efficacy, Scirpus juncoides (Scirpus juncoides; 1g a.i./10a)	herbicidal efficacy, Scirpus juncoides (Scirpus juncoides; 5g a.i./10a)	phytotoxicity, Oryza sativa (Oryza sativa; 1g a.i./10a)	phytotoxicity, Oryza sativa (Oryza sativa; 5g a.i./10a)	herbicidal efficacy, Amaranthus retroflexus (Amaranthus retroflexus [1]; 5g a.i./10a)	herbicidal efficacy, Amaranthus retroflexus (Amaranthus retroflexus [1]; 10g a.i./10a)	herbicidal efficacy, Chenopodium album (Chenopodium album [2]; 5g a.i./10a)	herbicidal efficacy, Chenopodium album (Chenopodium album [2]; 10g a.i./10a)	herbicidal efficacy, Digitaria ciliaris (Digitaria ciliaris [3]; 5g a.i./10a)	herbicidal efficacy, Digitaria ciliaris (Digitaria ciliaris [3]; 10g a.i./10a)	herbicidal efficacy, Amaranthus retroflexus (Amaranthus retroflexus [4]; 5g a.i./10a)	herbicidal efficacy, Amaranthus retroflexus (Amaranthus retroflexus [4]; 10g a.i./10a)	herbicidal efficacy, Chenopodium album (Chenopodium album [5]; 5g a.i./10a)	herbicidal efficacy, Chenopodium album (Chenopodium album [5]; 10g a.i./10a)	herbicidal efficacy, Digitaria ciliaris (Digitaria ciliaris [6]; 5g a.i./10a)	herbicidal efficacy, Digitaria ciliaris (Digitaria ciliaris [6]; 10g a.i./10a)	also measured
O=C(Nc1c([N+](=O)[O-])cnn1-c1nn2c(c1Cl)CCCC2)C1CCCC1 [Compound 6]	10 (10: 100%)	10 (10: 100%)	10 (10: 100%)	10 (10: 100%)	9 (9: 90% to less than 100%)	9 (9: 90% to less than 100%)	0 (0 (exponent): 0% to less than 10% (growth inhibition rate))	1 (1: 10% to less than 20%)	10 (10: 100%)	10 (10: 100%)	9 (9: 90% to less than 100%)	9 (9: 90% to less than 100%)	9 (9: 90% to less than 100%)	9 (9: 90% to less than 100%)	10 (10: 100%)	10 (10: 100%)	10 (10: 100%)	10 (10: 100%)	10 (10: 100%)	10 (10: 100%)	herbicidal efficacy, Digitaria ciliaris (Digitaria ciliaris [7]): 9 (9: 90% to less than 100%); herbicidal efficacy, Galinsoga parviflora (Galinsoga parviflora): 10 (10: 100%)
O=C(CC1CC1)Nc1c([N+](=O)[O-])cnn1-c1nn2c(c1Cl)CCCC2 [Compound 8]	9 (9: 90% to less than 100%)	10 (10: 100%)	10 (10: 100%)	10 (10: 100%)	9 (9: 90% to less than 100%)	10 (10: 100%)	0 (0 (exponent): 0% to less than 10% (growth inhibition rate))	0 (0 (exponent): 0% to less than 10% (growth inhibition rate))	10 (10: 100%)	10 (10: 100%)	10 (10: 100%)	10 (10: 100%)	9 (9: 90% to less than 100%)	10 (10: 100%)	10 (10: 100%)	10 (10: 100%)	10 (10: 100%)	10 (10: 100%)	9 (9: 90% to less than 100%)	10 (10: 100%)	herbicidal efficacy, Digitaria ciliaris (Digitaria ciliaris [7]): 9 (9: 90% to less than 100%); herbicidal efficacy, Galinsoga parviflora (Galinsoga parviflora): 10 (10: 100%)
N#Cc1cnn(-c2nn3c(c2Cl)CCCC3)c1NC(=O)C1CC1 [Control agent 4.190, reference compound]	6 (6: 60% to less than 70%)	6 (6: 60% to less than 70%)	4 (4: 40% to less than 50%)	5 (5: 50% to less than 60%)	4 (4: 40% to less than 50%)	5 (5: 50% to less than 60%)	8 (8: 80% to less than 90%)	9 (9: 90% to less than 100%)	4 (4: 40% to less than 50%)	4 (4: 40% to less than 50%)	5 (5: 50% to less than 60%)	6 (6: 60% to less than 70%)	3 (3: 30% to less than 40%)	4 (4: 40% to less than 50%)	4 (4: 40% to less than 50%)	6 (6: 60% to less than 70%)	5 (5: 50% to less than 60%)	6 (6: 60% to less than 70%)	5 (5: 50% to less than 60%)	6 (6: 60% to less than 70%)	herbicidal efficacy, Digitaria ciliaris (Digitaria ciliaris [7]): 2 (2: 20% to less than 30%); herbicidal efficacy, Galinsoga parviflora (Galinsoga parviflora): 4 (4: 40% to less than 50%)
O=C(Nc1c([N+](=O)[O-])cnn1-c1nn2c(c1Cl)CCCC2)C1CC1 [Compound 2]	10 (10: 100%)	10 (10: 100%)	10 (10: 100%)	10 (10: 100%)	9 (9: 90% to less than 100%)	9 (9: 90% to less than 100%)	1 (1: 10% to less than 20%)	1 (1: 10% to less than 20%)	10 (10: 100%)	10 (10: 100%)	9 (9: 90% to less than 100%)	9 (9: 90% to less than 100%)	9 (9: 90% to less than 100%)	9 (9: 90% to less than 100%)	10 (10: 100%)	10 (10: 100%)	10 (10: 100%)	10 (10: 100%)	10 (10: 100%)	10 (10: 100%)	herbicidal efficacy, Digitaria ciliaris (Digitaria ciliaris [7]): 10 (10: 100%); herbicidal efficacy, Galinsoga parviflora (Galinsoga parviflora): 10 (10: 100%)
